Data set [1] concerns the target T1, DENV-2 viral NS4B protein (Dengue virus type 2, UniProt P14340).
T1 construct: endogenous in cells; host or cells: Huh7 cells infected with DENV-2 strain NGC (virus-encoded protein in the lysate)
As to the kind of experiment: Pull-down assay with biotinylated compounds. Type of data set: binding, DENV-2 strain NGC. Particulars: lysates of DENV-2 infected Huh7 cells, streptavidin beads, Western blot. On the procedure:
Pull-Down Assay. 4 × 10^6 Huh7 cells were seeded in a T-75 flask. The next day, cells were infected with DENV-2 strain NGC at a MOI of 2.0 in the presence of 10 µM compound 73 or 75. Cells treated with 0.25% DMSO were used as a control. After 48 h-incubation at 37° C., cells were harvested and lysed in 500 µL lysis buffer comprising 20 mM Tris-HCL pH 7.5, 100 mM NaCl, 0.5% DDM, and EDTA-free protease inhibitor cocktail (Roche). After removing the cell debris by centrifugation at 15000 rpm for 10 min, the lysates were mixed with corresponding compound at a final concentration of 100 µM or DMSO (0.25%) prior to incubation with 80 µL Streptavidin Magnetic Beads (ThermoFisher Scientific). After incubation at 4° C. overnight with agitation, the beads were washed 5 times with PBST buffer (PBS containing 0.1% Tween 20). The beads were finally mixed with 1 × LDS sample buffer (ThermoFisher Scientific) containing 100 mM dithiothreitol (DTT, Sigma-Aldrich) and heated at 95° C. for 10 minutes to elute the bead-associated proteins. The eluates and cell lysates were loaded onto a 12% SDS-PAGE and viral NS4B proteins were detected by a mouse monoclonal antibody according to the protocol as reported previously.^56
On the technique in general: A western blot detects proteins with antibodies after separation by electrophoresis.

A further data set deals with DENV-2 replicon. The data set can be described thus: Luciferase reporter replicon-based screening, DENV-2. Type of data set: cell-based, DENV-2 (New Guinea C strain, NGC). The note with it: for EC50: Dengue virus, DENV2, Huh-7, 48 h, read-out: EC50 DENV-2, Huh7 cells stably expressing DENV-2 replicon, 48 h. In a few lines: (§1)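 Huh7 cells carrying Renilla luciferase/neo replicons of DENV-1 (WestPac), DENV-2 (NGC), DENV-3 (D3MY05-34640) or DENV-4 (D4MY01-22713), treated with 2-fold compound dilutions for 48 h at 37 °C in duplicate. Live-cell luciferase read; EC50 by four-parameter logistic fit.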

Another data set has as its system DENV-3 replicon. As to the kind of experiment: Luciferase reporter replicon-based screening, DENV-3. Type of data set: cell-based, DENV-3 (strain D3MY05-34640). The note with it: for EC50: Dengue virus, DENV3, Huh-7, 48 h, read-out: EC50 DENV-3, Huh7 cells stably expressing DENV-3 replicon, 48 h. In a few lines:
as §1
For orientation: Reporter assays use an easily measured gene product as a stand-in for the process of interest.

Another data set has as its system DENV-1 replicon. The data set can be described thus: Luciferase reporter replicon-based screening, DENV-1. Particulars: for EC50: Dengue virus, DENV1, Huh-7, 48 h, read-out: EC50 DENV-1. Type of data set: cell-based, DENV-1 (strain WestPac). A digest of the protocol: as §1
Another data set concerns DENV-4 replicon. The data set can be described thus: Luciferase reporter replicon-based screening, DENV-4. The class given is cell-based, DENV-4 (strain D4MY01-22713). The note with it: for EC50: Dengue virus, DENV4, Huh-7, 48 h, read-out: EC50 DENV-4. In a few lines: as §1
Data set [2] in a line: Cytotoxicity assay (CellTiter-Glo). The class given is cell-based. Particulars: human, Huh7 cells stably expressing DENV-2 replicon. In a few lines:
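Huh7 or Huh7 replicon cells, seeded overnight at 37 °C, exposed to 2-fold serial dilutions of compound for 48 h in duplicate. Viability by CellTiter-Glo, normalised to 0.45% DMSO wells (100%); CC50 by four-parameter logistic regression.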
In general terms: ATP-based viability assays read luminescence as a measure of living cells.

Data set [3] deals with P12 resistant DENV-2 viruses (NS4B V63M or V63L). The class given is cell-based, DENV-2 strain NGC.
The next data set can be described thus: in vivo. The class given is in vivo, male SD rats. The procedure:
In Vivo PK Studies. The PK profiles of compound 15 were determined in male SD rats following intravenous (i.v.) and oral (p.o.) administration of 10 and 20 mg/kg, respectively. The formulations used for i.v. and p.o. were solution in DMSO: 20% HP-β-CD in saline = 1:9. IV bolus injection, animal number N = 3; dose level: 10 mg/kg; sample collection time points: 5 min, 15 min, 30 min, 1 h, 2 h, 4 h, 8 h, 24 h; PO: animal number N = 3; fasting 12 h, dose level: 20 mg/kg; sample collection time points: 15 min, 30 min, 1 h, 2 h, 4 h, 8 h, 24 h. Plasma concentrations of compound 15 were measured by API-4000/5500 LC-MS/MS with 8 point standard curve and 6 QCs. Pharmacokinetic parameters were calculated by a non-compartmental approach using WinNonLin software.

The test system of a further data set is DENV-2 strain NGC. As to the kind of experiment: Viral titer reduction assay, DENV-2 strain NGC. The note with it: Dengue virus, DENV2, Huh-7; viral titer reduction assay on Huh7 cells. The class given is cell-based. The procedure:
Viral Titer Reduction Assay. Huh7 cells were seeded in a 96-well plate. The next day, cells were infected with DENV-2 strains NGC or D2Y98P at a MOI of 0.3 in the presence of 2-fold serial dilutions of compounds. Experiments were performed in triplicates. After incubation at 37° C. for 48 h, cell culture fluids were harvested. The infectious viruses in the culture fluids were determined by plaque assay using a protocol as described previously.^48 The EC50 values were calculated using four parameter logistic regression in GraphPad software Prism 8.0.

The mark [4] stands for this setting: at the concentration up to 10 µM (data not shown).

This is an account of results in patent US20230056205A1, “SUBSTITUTED 4,6-DIHYDROSPIRO[[1,2,3]TRIAZOLO[4,5-B]PYRIDINE-7,3'-INDOLINE]-2',5(3H)-DIONE ANALOGUES” (The Board of Regents of The University of Texas System, priority 2019, published 2023).

“Also recorded” adds a separate entry of the source. Some results are limits rather than exact numbers.

For `C[C@@H](c1ccc(Cl)cc1)n1nnc2c1NC(=O)C[C@@]21C(=O)N(CCOC(=O)CCCCCCCNC(=O)CCCC[C@@H]2SC[C@@H]3NC(=O)N[C@@H]32)c2ccc(Cl)cc21` [Compound 75, 2-((S)-5'-Chloro-3-((S)-1-(4-chlorophenyl)ethyl)-2',5-dioxo-3,4,5,6-tetrahydrospiro[[1,2,3]triazolo[4,5-b]pyridine-7,3'-indolin]-1'-yl)ethyl 8-(5-((3aS,4S,6aR)-2-oxohexahydro-1H-thieno[3,4-d]imidazol-4-yl)pentanamido)octanoate], in [1], the “pull down of / association with viral NS4B protein” value was “not”. Moreover, in the data set on DENV-2 replicon (FIG. 1B), the “remains active against DENV-2” value was “not”. The “remains active against DENV-3” value in the data set with DENV-3 replicon (FIG. 1B) is on record as “not”.
One may read the EC50 as the concentration giving half of the maximal effect. As to `C[C@@H](c1ccc(Cl)cc1)n1nnc2c1NC(=O)C[C@]21C(=O)N(CCOC(=O)CCCCCCCNC(=O)CCCC[C@@H]2SC[C@@H]3NC(=O)N[C@@H]32)c2ccc(Cl)cc21` [Compound 73, 2-((R)-5'-Chloro-3-((S)-1-(4-chlorophenyl)ethyl)-2',5-dioxo-3,4,5,6-tetrahydrospiro[[1,2,3]triazolo[4,5-b]pyridine-7,3'-indolin]-1'-yl)ethyl 8-(5-((3aS,4S,6aR)-2-oxohexahydro-1H-thieno[3,4-d]imidazol-4-yl)pentanamido)octanoate], in data set [1], the “pull down of / association with viral NS4B protein” value is on record as “can pull down viral NS4B protein; also recorded: associated with DENV-2 viral NS4B protein”. The EC50 with DENV-2 replicon was 41 nM; in the data set with DENV-3 replicon it was 17 nM. In addition, in the data set on DENV-1 replicon (setting [4]), the “activity against DENV-1” value is reported as “no significant activity”. The “activity against DENV-4” value in the data set with DENV-4 replicon (setting [4]) is given as “no significant activity”.
Broadly, the CC50 is the concentration giving 50% cytotoxicity. A low value points to greater toxicity to the cells. In [2], `C[C@@H](c1ccc(Cl)cc1)n1nnc2c1NC(=O)C[C@]21C(=O)N(CCCN(C)C)c2ccc(Cl)cc21` [Compound 63, (R)-5'-Chloro-3-((S)-1-(4-chlorophenyl)ethyl)-1'-(3-(dimethylamino)propyl)-4,6-dihydrospiro[[1,2,3]triazolo[4,5-b]pyridine-7,3'-indoline]-2',5(3H)-dione] gave a CC50 at 48 h of more than 10000 nM. The EC50 in the data set with DENV-2 replicon was 25 nM; in the data set on DENV-1 replicon, more than 5000 nM; in the data set with DENV-4 replicon, more than 5000 nM; with DENV-3 replicon, 1 nM. The “increase of EC50 of resistant viruses (resistance fold vs P0 DENV-2)” value in data set [3] (after twelve rounds of selection with compound 63, selections III to VI, Huh7 cells) was more than 100 folds.
A word on the MRT: it is a mean duration of stay, worked out from the concentration-time curve. Broadly, the t½ is the time needed for the level to fall by half in the phase considered. Read a high t½ as slow decline. What is called Tmax is the time at which the peak concentration occurs. For orientation: bioavailability means the share of a dose that reaches the circulation, judged against a reference dose that is usually intravenous. `CC(C)CCN1C(=O)[C@]2(CC(=O)Nc3c2nnn3[C@@H](C)c2ccc(Cl)cc2)c2cc(Cl)ccc21` [Compound 15, (R)-5'-Chloro-3-((S)-1-(4-chlorophenyl)ethyl)-1'-isopentyl-4,6-dihydrospiro[[1,2,3]triazolo[4,5-b]pyridine-7,3'-indoline]-2ʹ,5(3H)-dione] returned a CC50 at 48 h in data set [2] of more than 10000 nM. Besides, the “AUC0- ∞” value in the data set “in vivo” (iv 10 mg/kg, rat plasma) is on record as 10,334 ng·h/mL; in the data set “in vivo” (po 20 mg/kg, rat plasma) it was 6,240 ng·h/mL. For the same compound, the CL in the data set “in vivo” (iv 10 mg/kg, rat plasma) was determined as 13.7 mL/min/kg; in “in vivo” (po 20 mg/kg, rat plasma), 59.5 mL/min/kg. The Cmax was 10,334 ng/mL in the data set “in vivo” (iv 10 mg/kg, rat plasma) and 1,517 ng/mL in “in vivo” (po 20 mg/kg, rat plasma). Also, the mean residence time MRT was determined as 2.28 h in the data set “in vivo” (iv 10 mg/kg, rat plasma) and 3.46 h in the data set “in vivo” (po 20 mg/kg, rat plasma). The Vss in “in vivo” (iv 10 mg/kg, rat plasma) came out at 2.67 L/kg; in “in vivo” (po 20 mg/kg, rat plasma) it was 11.54 L/kg. Further, the t½ was 2.29 h in the data set “in vivo” (iv 10 mg/kg, rat plasma) and 2.24 h in “in vivo” (po 20 mg/kg, rat plasma). For the same compound, the Tmax in the data set “in vivo” (male, SD, in vivo, po 20 mg/kg, rat plasma) worked out at 1 h. For the same compound, in “in vivo” (male, SD, rat, in vivo, po 20 mg/kg vs iv 10 mg/kg, rats, read-out: F (absolute oral bioavailability)), the bioavailability is 30%. The EC50 is 160 nM in the data set on DENV-2 replicon; 780 nM in the data set on DENV-1 replicon; 2000 nM in [3] (viral reduction assay on Huh7 cells, read-out: EC50 against resistant viruses P12-VI); approximately 100 nM with DENV-2 strain NGC; more than 5000 nM in the data set on DENV-4 replicon; 35 nM in the data set on DENV-3 replicon. The “increase of viral resistance by mutation NS4B V63L” value in [3] (P12-VI virus, Huh7 cells) is on record as 16 folds.
